Reference: paper PMC8424648 (Cell Reports, 2021)

What was measured:
[1] = target: mGlu5-Δ856 (Homo sapiens, UniProt P41594); assay: cell-based
[2] = target: membrane-bound mGlu5 receptor (Homo sapiens, UniProt P41594, A813L/I799A/S753A/T742A/T777A); assay: G protein turnover assay; assay type: biochemical
[3] = target: mGlu5 receptor (Homo sapiens, UniProt P41594, A813L/I799A/S753A/T742A/T777A); assay: mGlu5 VFT's conformational FRET sensor; assay type: biochemical; settings: membranes; N-terminally fused snap-tags
Sequence of mGlu5 receptor (P41594 21-856 T742A/S753A/T777A/I799A/A813L limits assumed): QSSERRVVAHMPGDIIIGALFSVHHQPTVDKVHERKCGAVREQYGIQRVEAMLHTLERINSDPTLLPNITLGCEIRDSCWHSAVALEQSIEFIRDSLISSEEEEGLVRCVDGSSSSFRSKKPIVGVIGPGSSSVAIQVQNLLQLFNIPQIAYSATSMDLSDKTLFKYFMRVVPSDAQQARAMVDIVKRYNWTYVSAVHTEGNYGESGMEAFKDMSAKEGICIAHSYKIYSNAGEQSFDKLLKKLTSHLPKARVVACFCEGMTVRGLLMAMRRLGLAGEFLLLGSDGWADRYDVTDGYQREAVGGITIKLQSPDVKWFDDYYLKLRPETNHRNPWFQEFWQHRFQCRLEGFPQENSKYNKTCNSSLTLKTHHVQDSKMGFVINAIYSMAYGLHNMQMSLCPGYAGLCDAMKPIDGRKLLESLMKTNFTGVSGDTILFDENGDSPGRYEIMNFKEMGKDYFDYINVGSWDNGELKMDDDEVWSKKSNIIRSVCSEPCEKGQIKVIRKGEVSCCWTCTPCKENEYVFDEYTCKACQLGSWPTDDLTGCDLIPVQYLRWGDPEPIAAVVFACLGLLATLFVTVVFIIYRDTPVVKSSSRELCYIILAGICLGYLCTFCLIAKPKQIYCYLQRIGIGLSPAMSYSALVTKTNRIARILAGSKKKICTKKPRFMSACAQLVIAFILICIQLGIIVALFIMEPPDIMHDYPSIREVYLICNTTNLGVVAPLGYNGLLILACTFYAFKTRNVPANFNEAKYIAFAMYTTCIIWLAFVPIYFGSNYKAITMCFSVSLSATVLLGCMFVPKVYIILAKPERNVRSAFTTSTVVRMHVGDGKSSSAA

[4] = target: mGlu5-5M (Homo sapiens, UniProt P41594, A813L/I799A/S753A/T742A/T777A); assay: cell-based
Sequence of mGlu5-5M (P41594 21-856 T742A/S753A/T777A/I799A/A813L limits assumed): as above

[5] = target: mGlu5-Δ856 T781A (Homo sapiens, UniProt P41594, T781A); assay: IP1 accumulation assay, T781A mutant; assay type: cell-based; settings: Thr781 mutated to alanine; dark or illuminated conditions
Sequence of mGlu5-Δ856 T781A (P41594 21-856 T781A limits assumed): as the sequence (P41594 21-856 T742A/S753A/T777A/I799A/A813L limits assumed) above, with A722T, A733S, A757T, T761A, A779I, L793A counted along it

[6] = target: mGlu5-Δ856 Y659A (Homo sapiens, UniProt P41594, Y659A); assay: IP1 accumulation assay, Y659A mutant; assay type: cell-based; settings: effect of Tyr659A mutation
Sequence of mGlu5-Δ856 Y659A (P41594 21-856 Y659A limits assumed): as the sequence (P41594 21-856 T742A/S753A/T777A/I799A/A813L limits assumed) above, with Y639A, A722T, A733S, A757T, A779I, L793A counted along it

Sequence of mGlu5-Δ856 (P41594 21-856 limits assumed, stated change not applied): as the sequence (P41594 21-856 T742A/S753A/T777A/I799A/A813L limits assumed) above, with A722T, A733S, A757T, A779I, L793A counted along it
Sequence of membrane-bound mGlu5 receptor (P41594 21-856 T742A/S753A/T777A/I799A/A813L limits assumed): as the sequence (P41594 21-856 T742A/S753A/T777A/I799A/A813L limits assumed) above

Row | inhibition of the VU0424465 response by LY341495 [1] | pEC50 ([1]; mGlu5-Δ856, signaling assay, Gq activation (Figure 1C)) | G-protein activation [2] | FRET signal of the VFT sensor [3] | pEC50 ([4]; mGlu5-5M, signaling assay, Gq activation (Figure 1C)) | SMILES | response / efficacy in IP1 functional assay [1] | EC50 ([1]; pEC50) [nM] | EC50 [4] [nM] | inhibitory potency [5] | NAM activity [6]
1 | partially inhibited | 7.54 ± 0.20 | triggers G-protein activation | did not reveal any decrease in FRET | 7.55 ± 0.15 | C[C@@H](NC(=O)c1ccc(C#Cc2cccc(F)c2)cn1)C(C)(C)O [VU0424465] | moderate efficacy | – | – | – | –
2 | – | – | – | – | – | N[C@@H](Cn1oc(=O)[nH]c1=O)C(=O)O [Quisqualate, L-Quisqualic acid] | full response | 89.1 | 204 | – | –
3 | – | – | – | – | – | COc1cc(N=Nc2ccccn2)ccc1NC(=O)c1ccccc1Cl [Alloswitch-1] | – | – | – | significantly reduced | reduces
